Experimental data published in ChEMBL document CHEMBL6096630, “Enhancing therapeutic efficacy in homologous recombination-proficient pancreatic cancer via the combination of PARP1-PROTAC and a BRD4 inhibitor” (Bioorg Med Chem, 2024).
Activity calls are given as the source filed them. The rule behind the calls is not given here.

How the values were obtained:
[1] = tested on: PANC-1; assay: Induction of DNA damage in human PANC-1 cells assessed as decrease in RAD51 level at 2 uM in presence of JQ1 by Western blot analysis; assay type: functional, cell-based
[2] = tested on: PANC-1; assay: Induction of cell cycle arrest in human PANC-1 cells assessed as accumulation at G1 phase at 0.6 uM incubated for 24 hrs by PI staining based flow cytometry (reference value: 51.70 %); assay type: functional
[3] = tested on: PANC-1; assay: Induction of cell cycle arrest in human PANC-1 cells assessed as accumulation at G1 phase at 1.2 uM incubated for 24 hrs by PI staining based flow cytometry (reference value: 51.70 %); assay type: functional
[4] = tested on: PANC-1; assay: Induction of cell cycle arrest in human PANC-1 cells assessed as accumulation at G2 phase at 1.2 uM incubated for 24 hrs by PI staining based flow cytometry (reference value: 9.36 %); assay type: functional
[5] = tested on: PANC-1; assay: Induction of cell cycle arrest in human PANC-1 cells assessed as accumulation at G1 phase at 2.5 uM incubated for 24 hrs by PI staining based flow cytometry (reference value: 51.70 %); assay type: functional
[6] = tested on: PANC-1; assay: Induction of cell cycle arrest in human PANC-1 cells assessed as accumulation at G1 phase at 10 uM incubated for 24 hrs by PI staining based flow cytometry (reference value: 51.70 %); assay type: functional
[7] = tested on: PANC-1; assay: Induction of cell cycle arrest in human PANC-1 cells assessed as accumulation at S phase at 2 uM incubated for 24 hrs in presence of JQ1 by PI staining based flow cytometry (reference value: 38.94 %); assay type: functional
[8] = tested on: PANC-1; assay: Induction of cell cycle arrest in human PANC-1 cells assessed as accumulation at G2 phase at 2 uM incubated for 24 hrs in presence of JQ1 by PI staining based flow cytometry (reference value: 9.36 %); assay type: functional
[9] = tested on: PANC-1; assay: Induction of cell cycle arrest in human PANC-1 cells assessed as accumulation at G0/G1 phase at 0.12 to 2 uM incubated for 24 hrs by PI staining based flow cytometry; assay type: functional; details: dose 0.12-2 µM
[10] = tested on: PANC-1; assay: Induction of apoptosis in human PANC-1 cells assessed as necrotic cells at 0.6 uM incubated for 48 hrs by Annexin V-FITC/PI staining based flow cytometry (reference value: 3.09 %); assay type: functional
[11] = tested on: PANC-1; assay: Induction of apoptosis in human PANC-1 cells assessed as necrotic cells at 1.2 uM incubated for 48 hrs by Annexin V-FITC/PI staining based flow cytometry (reference value: 3.09 %); assay type: functional
[12] = tested on: PANC-1; assay: Induction of apoptosis in human PANC-1 cells assessed as late apoptotic cells at 2.5 uM incubated for 48 hrs by Annexin V-FITC/PI staining based flow cytometry (reference value: 3.87 %); assay type: functional
[13] = tested on: PANC-1; assay: Induction of apoptosis in human PANC-1 cells assessed as necrotic cells at 2.5 uM incubated for 48 hrs by Annexin V-FITC/PI staining based flow cytometry (reference value: 3.09 %); assay type: functional
[14] = tested on: PANC-1; assay: Induction of apoptosis in human PANC-1 cells assessed as viable cells at 10 uM incubated for 48 hrs by Annexin V-FITC/PI staining based flow cytometry (reference value: 91.64 %); assay type: functional; details: read-out: Activity
[15] = tested on: PANC-1; assay: Induction of apoptosis in human PANC-1 cells assessed as early apoptotic cells at 10 uM incubated for 48 hrs by Annexin V-FITC/PI staining based flow cytometry (reference value: 1.41 %); assay type: functional
[16] = tested on: PANC-1; assay: Induction of apoptosis in human PANC-1 cells assessed as late apoptotic cells at 10 uM incubated for 48 hrs by Annexin V-FITC/PI staining based flow cytometry (reference value: 3.87 %); assay type: functional
[17] = tested on: PANC-1; assay: Induction of apoptosis in human PANC-1 cells assessed as early apoptotic cells at 2 uM incubated for 48 hrs in presence of JQ1 by Annexin V-FITC/PI staining based flow cytometry (reference value: 1.41 %); assay type: functional
[18] = tested on: PANC-1; assay: Induction of apoptosis in human PANC-1 cells assessed as late apoptotic cells at 2 uM incubated for 48 hrs in presence of JQ1 by Annexin V-FITC/PI staining based flow cytometry (reference value: 3.87 %); assay type: functional
[19] = tested on: PANC-1; assay: Antitumor activity against human PANC-1 cells xenografted in BALB/c mouse assessed as reduction in tumor growth at 40 mg/kg, ip for 4 weeks administered for 5 days consecutively and 2 days without treatment on every week in presence of JQ1; assay type: functional, organism-based
[20] = tested on: PANC-1; assay: Antitumor activity against human PANC-1 cells xenografted in BALB/c mouse assessed as inhibition of tumor weight at 40 mg/kg, ip for 4 weeks administered for 5 days consecutively and 2 days without treatment on every week in presence of JQ1; assay type: functional, organism-based
[21] = Toxicity in BALB/c mouse xenografted with human PANC-1 cells assessed as animal morbidity at 40 mg/kg, ip for 4 weeks administered for 5 days consecutively and 2 days without treatment on every week in presence of JQ1; assay type: organism-based; details: in vivo, 672 h
[22] = Toxicity in BALB/c mouse xenografted with human PANC-1 cells assessed as body weight loss at 40 mg/kg, ip for 4 weeks administered for 5 days consecutively and 2 days without treatment on every week in presence of JQ1; assay type: organism-based; details: in vivo, 672 h
[23] = Toxicity in BALB/c mouse xenografted with human PANC-1 cells assessed as pathological changes in heart at 40 mg/kg, ip for 4 weeks administered for 5 days consecutively and 2 days without treatment on every week by H and E staining based analysis; assay type: organism-based; details: in vivo, 672 h
[24] = Toxicity in BALB/c mouse xenografted with human PANC-1 cells assessed as pathological changes in heart at 40 mg/kg, ip for 4 weeks administered for 5 days consecutively and 2 days without treatment on every week in presence of JQ1 by H and E staining based analysis; assay type: organism-based; details: in vivo, 672 h
[25] = Toxicity in BALB/c mouse xenografted with human PANC-1 cells assessed as pathological changes in lung at 40 mg/kg, ip for 4 weeks administered for 5 days consecutively and 2 days without treatment on every week in presence of JQ1 by H and E staining based analysis; assay type: organism-based; details: in vivo, 672 h
[26] = Toxicity in BALB/c mouse xenografted with human PANC-1 cells assessed as pathological changes in spleen at 40 mg/kg, ip for 4 weeks administered for 5 days consecutively and 2 days without treatment on every week in presence of JQ1 by H and E staining based analysis; assay type: organism-based; details: in vivo, 672 h
[27] = Toxicity in BALB/c mouse xenografted with human PANC-1 cells assessed as pathological changes in liver at 40 mg/kg, ip for 4 weeks administered for 5 days consecutively and 2 days without treatment on every week in presence of JQ1 by H and E staining based analysis; assay type: organism-based; details: in vivo, 672 h
[28] = Toxicity in BALB/c mouse xenografted with human PANC-1 cells assessed as pathological changes in kidney at 40 mg/kg, ip for 4 weeks administered for 5 days consecutively and 2 days without treatment on every week by H and E staining based analysis; assay type: organism-based; details: in vivo, 672 h
[29] = Toxicity in BALB/c mouse xenografted with human PANC-1 cells assessed as pathological changes in kidney at 40 mg/kg, ip for 4 weeks administered for 5 days consecutively and 2 days without treatment on every week in presence of JQ1 by H and E staining based analysis; assay type: organism-based; details: in vivo, 672 h
[30] = Toxicity in BALB/c mouse xenografted with human PANC-1 cells assessed as drug tolerance at 40 mg/kg, ip for 4 weeks administered for 5 days consecutively and 2 days without treatment on every week in presence of JQ1; assay type: organism-based; details: in vivo, 672 h

SMILES | Activity [1] | Activity [2] | Activity [3] | Activity [4] | Activity [5] | Activity [6] | Activity [7] | Activity [8] | Activity [9] | Activity [10] | Activity [11] | Activity [12] | Activity [13] | viability at 10 µM [14] | Activity [15] | Activity [16] | Activity [17] | Activity [18] | Activity [19] | inhibition [20] | other results
O=C1CCC(N2C(=O)c3cccc(NC(=O)CNCCCCCCCCCCC(=O)N4CCN(C(=O)c5cc(Cc6n[nH]c(=O)c7ccccc67)ccc5F)CC4)c3C2=O)C(=O)N1 (stereo not given) | Active | 45.34% | 45.72% | 11.34% | 43.76% | 43.14% | 26.81% | 22.93% | 43.66% | 3.52% | 2.74% | 4.42% | 2.55% | 86.3% | 4.38% | 5.33% | 8.77% | 21.9% | Active | Active | Activity [21]: Non-toxic; Activity [22]: Non-toxic; Activity [23]: Non-toxic; Activity [24]: Non-toxic; Activity [25]: Non-toxic; Activity [26]: Non-toxic; Activity [27]: Non-toxic; Activity [28]: Non-toxic; Activity [29]: Non-toxic; Activity [30]: Non-toxic
Cc1sc2c(c1C)C(c1ccc(Cl)cc1)=N[C@@H](CC(=O)OC(C)(C)C)c1nnc(C)n1-2 |  |  |  |  |  |  |  |  | Active |  |  |  |  |  |  |  |  |  |  |  | 
O=C(c1cc(Cc2n[nH]c(=O)c3ccccc23)ccc1F)N1CCN(C(=O)C2CC2)CC1 [OLAPARIB] | Active | 46.78% | 46.59% | 12.41% | 44.32% | 35.31% | 25.85% | 15.74% |  | 3.23% | 4.05% | 4.53% | 3.45% | 87.3% | 3.98% | 5.35% | 5.44% | 21.52% | Active | Active | Activity [21]: Non-toxic; Activity [22]: Toxic; Activity [23]: Non-toxic; Activity [24]: Non-toxic; Activity [25]: Non-toxic; Activity [26]: Non-toxic; Activity [27]: Non-toxic; Activity [28]: Non-toxic; Activity [29]: Non-toxic; Activity [30]: Non-toxic
